Results on ten compounds are retold here after ChEMBL document CHEMBL1201862, “PubChem BioAssay data set” (2004).

Some test systems named below: ACHN; CCRF-CEM; COLO 205; HCC 2998; HCT-15; HOP-62; IGROV-1; KM12; MCF7; MDA-N; Malme-3M; NCI-H23; OVCAR-3; PC-3; RXF 393; SK-OV-3; SNB-75; SR; T47D; UO-31.
Holding throughout (experiment): growth of human tumour cells (NCI), 48 h

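Test compounds were applied to cells in 96-well plates for 48 hours at 5 doses. Abbreviation: GI50, concentration required for 50% inhibition of growth.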 Active and inactive are the calls of the source. No stated cut-off is given here; in the data, active = GI50 up to about 1.1 µM and inactive = higher. Bounds are passed on as bounds.

As to `c1cc(CSSCc2ccncc2)ccn1`, the GI50 in the experiment on ACHN was 42.2 µM (inactive); in the experiment with CCRF-CEM, 1.24 µM (inactive); with COLO 205, 8.11 µM (inactive); with HCC 2998, 22.9 µM (inactive); in the experiment with HCT-15, 19.4 µM; in the experiment with HOP-62, 46.2 µM (inactive). Moreover, the GI50 was 30.5 µM (inactive) with IGROV-1; 29.6 µM (inactive) with KM12; 32.8 µM (inactive) in the experiment with MCF7; 12.9 µM (inactive) in the experiment with MDA-N; 24.9 µM (inactive) in the experiment with Malme-3M; 22 µM (inactive) in the experiment with NCI-H23. In addition, the GI50 with OVCAR-3 was 33.6 µM (inactive); with PC-3, 21.7 µM (inactive); in the experiment on RXF 393, 23.6 µM (inactive); in the experiment on SK-OV-3, 23.1 µM (inactive); in the experiment with SNB-75, 57.1 µM (inactive); in the experiment on SR it was 3.44 µM (inactive). In addition, the GI50 in the experiment on T47D was > 67.9 µM (inactive); in the experiment on UO-31 it was 8.99 µM (inactive).
Take `CCN(CC)C(=O)C1=C(C)NC(C)=C(C(=O)N(CC)CC)C1`: the GI50 in the experiment on ACHN was > 100 µM (inactive); with CCRF-CEM, > 100 µM (inactive); with COLO 205 it was > 100 µM (inactive); in the experiment with HCC 2998, > 100 µM (inactive); in the experiment with HCT-15, over 100 µM; in the experiment on HOP-62, > 100 µM (inactive). Besides, the GI50 with IGROV-1, in the experiment with KM12, with MCF7, in the experiment on MDA-N, in the experiment on Malme-3M and in the experiment on NCI-H23 was > 100 µM (inactive) each time. In addition, the GI50 with OVCAR-3 is > 100 µM (inactive); with PC-3 it was > 100 µM (inactive); in the experiment on RXF 393 it was > 100 µM (inactive); in the experiment on SK-OV-3, > 100 µM (inactive); in the experiment on SNB-75, 14.5 µM (inactive); in the experiment on SR, > 100 µM (inactive). In addition, the figures for the GI50 in the experiment on T47D and with UO-31 were 58.1 µM (inactive) and 81.1 µM (inactive), respectively.
For the compound `CC1(C)C=[N+]([O-])C(C)(C)N1`, the GI50 was > 100 µM (inactive) in the experiment on ACHN; > 100 µM (inactive) in the experiment with CCRF-CEM; > 100 µM (inactive) in the experiment with COLO 205; > 100 µM (inactive) in the experiment on HCC 2998; over 100 µM with HCT-15; > 100 µM (inactive) in the experiment on HOP-62. Moreover, the GI50 in the experiment on IGROV-1, with KM12, in the experiment with MCF7, with MDA-N, in the experiment on Malme-3M and in the experiment with NCI-H23 was > 100 µM (inactive) in each case. The GI50 in the experiment on OVCAR-3, in the experiment with PC-3, in the experiment with RXF 393, in the experiment on SK-OV-3, in the experiment with SNB-75 and in the experiment with SR was > 100 µM (inactive) throughout. In addition, the GI50 with T47D and with UO-31 was > 100 µM (inactive) throughout.
As for `NC(Cc1ccc2nc3c4ccccc4c(=O)cc-3oc2c1)C(=O)O` (stereo not given), the GI50 was > 100 µM (inactive) in the experiment on ACHN; > 100 µM (inactive) with CCRF-CEM; 20.9 µM (inactive) with COLO 205; > 100 µM (inactive) in the experiment on HCC 2998; over 100 µM in the experiment with HCT-15; > 100 µM (inactive) in the experiment on HOP-62. For the same compound, the GI50 with IGROV-1 was > 100 µM (inactive); with KM12 it was > 100 µM (inactive); in the experiment with MCF7 it was 18.4 µM (inactive); with MDA-N, 16 µM (inactive); with Malme-3M it was 14.8 µM (inactive); in the experiment with NCI-H23, 17.6 µM (inactive). Also, the GI50 was 74.1 µM (inactive) in the experiment on OVCAR-3; > 100 µM (inactive) in the experiment with PC-3; > 100 µM (inactive) with RXF 393; > 100 µM (inactive) in the experiment on SK-OV-3; 65.8 µM (inactive) in the experiment with SNB-75; > 100 µM (inactive) in the experiment with SR. The GI50 in the experiment on T47D and in the experiment with UO-31 was > 100 µM (inactive) each time.
Consider `CCCCCC(=O)Nc1[nH]nnc1C(N)=O`, for which the GI50 is > 100 µM (inactive) in the experiment with ACHN; > 100 µM (inactive) in the experiment on CCRF-CEM; > 100 µM (inactive) in the experiment with COLO 205; > 100 µM (inactive) in the experiment on HCC 2998; over 100 µM in the experiment on HCT-15; > 100 µM (inactive) in the experiment with HOP-62. For the same compound, the GI50 in the experiment on IGROV-1, in the experiment on KM12, with MCF7, with MDA-N, in the experiment on Malme-3M and in the experiment on NCI-H23 was > 100 µM (inactive) throughout. Moreover, the GI50 in the experiment with OVCAR-3, with PC-3, in the experiment with RXF 393, with SK-OV-3, in the experiment with SNB-75 and in the experiment with SR was > 100 µM (inactive) in each case. Further, the GI50 in the experiment on T47D and in the experiment on UO-31 was > 100 µM (inactive) throughout.
For `CC1(c2cccc(C(F)(F)F)c2)CC(c2cccc(C(F)(F)F)c2)=C(C#N)C(=C(C#N)C#N)N1` (stereo not given), the GI50 is 17.2 µM (inactive) in the experiment with ACHN; 2.88 µM (inactive) in the experiment with CCRF-CEM; 14.6 µM (inactive) in the experiment with COLO 205; 17.2 µM (inactive) in the experiment on HCC 2998; 16.4 µM with HCT-15; 17.1 µM (inactive) with HOP-62. For the same compound, the GI50 was 16.6 µM (inactive) with IGROV-1; 16.5 µM (inactive) with KM12; 16.7 µM (inactive) with MCF7; 18 µM (inactive) in the experiment with MDA-N; 17.1 µM (inactive) in the experiment with Malme-3M; 19.3 µM (inactive) in the experiment on NCI-H23. Further, the GI50 with OVCAR-3 is 11.9 µM (inactive); in the experiment with PC-3, 19.4 µM (inactive); with RXF 393, 16.8 µM (inactive); with SK-OV-3, 16.1 µM (inactive); in the experiment with SNB-75, 19.3 µM (inactive); in the experiment on SR, 12.6 µM (inactive). Further, the GI50 in the experiment on T47D is 17 µM (inactive); in the experiment with UO-31 it was 18.6 µM (inactive).
As for `CC(=O)c1cccc2c1CC1(C2)Cc2ccc3c(c2C1=O)CCC3` (stereo not given), the GI50 with ACHN is 47.9 µM (inactive); in the experiment with CCRF-CEM, 34.8 µM (inactive); in the experiment on COLO 205 it was 26.5 µM (inactive); in the experiment on HCC 2998, 15 µM (inactive); in the experiment with HCT-15 it was 33.6 µM; in the experiment on HOP-62, 54 µM (inactive). Also, the GI50 was 74 µM (inactive) in the experiment with IGROV-1; 29.6 µM (inactive) in the experiment with KM12; 9.57 µM (inactive) with MCF7; 49.1 µM (inactive) in the experiment on MDA-N; 14.3 µM (inactive) in the experiment with Malme-3M; 67.8 µM (inactive) in the experiment with NCI-H23. Besides, the GI50 was 23.5 µM (inactive) in the experiment on OVCAR-3; 32.5 µM (inactive) with PC-3; 33 µM (inactive) in the experiment with RXF 393; 83.6 µM (inactive) in the experiment with SK-OV-3; 35.9 µM (inactive) in the experiment on SNB-75; 14.8 µM (inactive) in the experiment with SR. The GI50 was 29.1 µM (inactive) in the experiment with T47D and 30.3 µM (inactive) in the experiment with UO-31.
`O=[N+]([O-])c1cccc2nc3ccccc3c(NCCC[N+]3([O-])CCOCC3)c12`: the GI50 in the experiment with ACHN is 0.65 µM (active); in the experiment on CCRF-CEM, 0.0933 µM (active); in the experiment on COLO 205, 0.0731 µM (active); with HCC 2998 it was 0.0128 µM (active); in the experiment on HCT-15, 1.36 µM; in the experiment with HOP-62, 0.119 µM (active). For the same compound, the GI50 in the experiment on IGROV-1 was 0.15 µM (active); with KM12, 0.187 µM (active); with MCF7, 0.0548 µM (active); with MDA-N it was 0.13 µM (active); in the experiment with Malme-3M it was 0.162 µM (active); with NCI-H23 it was 0.0791 µM (active). Moreover, the GI50 is 0.17 µM (active) with OVCAR-3; 0.177 µM (active) in the experiment on PC-3; 0.106 µM (active) in the experiment with RXF 393; 0.281 µM (active) in the experiment on SK-OV-3; 0.195 µM (active) in the experiment with SNB-75; 0.026 µM (active) with SR. Moreover, the GI50 in the experiment with T47D was 0.171 µM (active); in the experiment with UO-31 it was 1.67 µM (inactive).
As to `CCCCCC(/C=C/C1CCC(=O)C1)OCOCCOC` (stereo not given), the GI50 was 22.3 µM (inactive) in the experiment on ACHN; 35.3 µM (inactive) in the experiment with CCRF-CEM; 48.8 µM (inactive) with COLO 205; 64.4 µM (inactive) in the experiment on HCC 2998; 31.1 µM with HCT-15; > 100 µM (inactive) in the experiment with HOP-62. Moreover, the GI50 with IGROV-1 was 42.2 µM (inactive); in the experiment on KM12 it was 45.9 µM (inactive); with MCF7, 33.5 µM (inactive); in the experiment on MDA-N, 40.2 µM (inactive); in the experiment with Malme-3M it was > 78.9 µM (inactive); in the experiment with NCI-H23, 55.2 µM (inactive). In addition, the GI50 is 41.4 µM (inactive) with OVCAR-3; 42.1 µM (inactive) in the experiment with PC-3; 34 µM (inactive) with RXF 393; > 100 µM (inactive) in the experiment with SK-OV-3; 11.5 µM (inactive) with SNB-75; > 46.3 µM (inactive) in the experiment with SR. Also, the GI50 in the experiment with T47D is 52.1 µM (inactive); in the experiment with UO-31 it was 17.9 µM (inactive).
With `C=C1CCC(CC[C@@H]2CC[C@]3(OC2)O[C@@]2(O)CC[C@]3(C)OC2(C)C)C(C)(C)[C@H]1C/C=C1/C(=O)OC[C@@H]1O` (stereo not given in full), the GI50 in the experiment on ACHN is 2.65 µM (inactive); with CCRF-CEM, 1.06 µM (active); with COLO 205, 5.43 µM (inactive); with HCC 2998 it was 4.16 µM (inactive); with HCT-15 it was 1.22 µM; with HOP-62 it was 6.1 µM (inactive). Besides, the GI50 was 2.91 µM (inactive) in the experiment on IGROV-1; 2.34 µM (inactive) with KM12; 1.11 µM (active) in the experiment on MCF7; 1.49 µM (inactive) with MDA-N; 2.39 µM (inactive) in the experiment on Malme-3M; 0.445 µM (active) with NCI-H23. Also, the GI50 in the experiment on OVCAR-3 is 2.57 µM (inactive); with PC-3, 2.17 µM (inactive); with RXF 393, 2.19 µM (inactive); in the experiment on SK-OV-3 it was 4.85 µM (inactive); in the experiment on SNB-75, 7.29 µM (inactive); with SR, 1.54 µM (inactive). Also, the GI50 is 0.413 µM (active) with T47D and 4.91 µM (inactive) with UO-31.
